Legend:
[1] = molecular target: T1, Nitric oxide synthase, inducible (Mus musculus, UniProt P29477); set-up: species or system Escherichia coli;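 also: inhibition of iNOS enzyme activity measured with L-arginine as substrate; in other assays of this panel Not Active means under 50% inhibition at 10 µM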
T1 sequence (P29477 whole entry): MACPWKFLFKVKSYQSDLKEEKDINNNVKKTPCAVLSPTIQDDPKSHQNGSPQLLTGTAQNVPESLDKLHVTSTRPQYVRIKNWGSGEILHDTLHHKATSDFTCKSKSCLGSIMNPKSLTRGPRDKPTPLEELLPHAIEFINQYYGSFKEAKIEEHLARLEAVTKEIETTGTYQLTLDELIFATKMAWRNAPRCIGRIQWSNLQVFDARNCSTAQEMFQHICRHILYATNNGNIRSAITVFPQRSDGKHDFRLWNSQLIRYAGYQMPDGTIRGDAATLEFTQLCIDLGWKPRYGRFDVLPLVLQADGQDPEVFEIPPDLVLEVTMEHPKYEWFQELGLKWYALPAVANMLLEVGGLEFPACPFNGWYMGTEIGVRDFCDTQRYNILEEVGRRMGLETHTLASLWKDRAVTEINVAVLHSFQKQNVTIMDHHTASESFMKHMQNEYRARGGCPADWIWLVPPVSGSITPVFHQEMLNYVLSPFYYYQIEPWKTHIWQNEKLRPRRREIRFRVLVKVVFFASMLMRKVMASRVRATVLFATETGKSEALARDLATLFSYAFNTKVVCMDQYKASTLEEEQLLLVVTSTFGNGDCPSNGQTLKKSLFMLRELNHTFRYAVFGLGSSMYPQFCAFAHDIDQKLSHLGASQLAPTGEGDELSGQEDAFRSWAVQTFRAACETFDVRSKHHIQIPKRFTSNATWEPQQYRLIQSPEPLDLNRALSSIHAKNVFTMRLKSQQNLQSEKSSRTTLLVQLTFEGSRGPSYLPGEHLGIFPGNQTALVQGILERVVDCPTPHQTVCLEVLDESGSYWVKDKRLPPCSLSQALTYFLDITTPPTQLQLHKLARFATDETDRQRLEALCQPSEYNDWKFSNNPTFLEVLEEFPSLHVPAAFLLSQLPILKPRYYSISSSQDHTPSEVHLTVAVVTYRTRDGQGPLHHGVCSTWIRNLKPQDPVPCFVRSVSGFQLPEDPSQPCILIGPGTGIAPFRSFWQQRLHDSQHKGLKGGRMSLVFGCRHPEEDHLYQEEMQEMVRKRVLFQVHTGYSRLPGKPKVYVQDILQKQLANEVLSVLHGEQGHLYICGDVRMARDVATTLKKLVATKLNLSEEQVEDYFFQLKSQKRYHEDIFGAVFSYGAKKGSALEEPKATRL

[2] = molecular target: Mitogen-activated protein kinase 14 (Homo sapiens, UniProt Q16539); set-up: species or system Escherichia coli;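 also: inhibition of p38alpha enzyme activity in a biochemical kinase assay, with myelin basic protein serving as substrate; in other assays of this panel Not Active means under 50% inhibition at 10 µM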
[3] = molecular target: Vascular endothelial growth factor receptor 1 (Homo sapiens, UniProt P17948); assay: biochemical; format: cell-based, HUVEC; settings: huvec; also: in other assays of this panel Not Active means under 50% inhibition at 10 µM
Cytochrome P450 3A4 = Cytochrome P450 3A4 (Homo sapiens, UniProt P08684); settings: bti-tn-5b1-4; also: in other assays of this panel Not Active means under 50% inhibition at 10 µM
[4] = molecular target: T2, Neuropeptide Y receptor type 2 (Homo sapiens, UniProt P49146); format: cell membranes, Membrane; settings: kan-ts; also: in other assays of this panel Not Active means under 50% inhibition at 10 µM
T2 sequence (P49146 whole entry): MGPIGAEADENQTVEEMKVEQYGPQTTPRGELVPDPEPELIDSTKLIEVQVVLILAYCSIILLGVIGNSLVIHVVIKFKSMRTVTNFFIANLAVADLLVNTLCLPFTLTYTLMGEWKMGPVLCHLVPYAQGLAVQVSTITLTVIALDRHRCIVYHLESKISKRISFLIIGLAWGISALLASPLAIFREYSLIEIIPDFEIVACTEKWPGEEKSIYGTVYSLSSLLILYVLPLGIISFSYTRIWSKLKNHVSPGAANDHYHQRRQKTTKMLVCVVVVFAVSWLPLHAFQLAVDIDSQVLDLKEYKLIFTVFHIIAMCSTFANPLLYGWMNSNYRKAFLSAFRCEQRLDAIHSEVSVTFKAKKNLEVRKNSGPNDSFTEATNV

[5] = DRUGMATRIX: Potassium Channel [KATP] radioligand binding (ligand: [3H] Glyburide); format: cell membranes, Membrane; settings: hit-t15; Not Active = under 50% inhibition at 10 µM
Cytochrome P450 2C19 = Cytochrome P450 2C19 (Homo sapiens, UniProt P33261); settings: bti-tn-5b1-4; also: in other assays of this panel Not Active means under 50% inhibition at 10 µM
[6] = DRUGMATRIX: Glutamate, Kainate radioligand binding (ligand: [3H] Kainic acid); format: cell membranes, Rattus norvegicus, Wistar, Brain, Membrane; settings: Not Active = under 50% inhibition at 10 µM

Sequence of Mitogen-activated protein kinase 14 (Q16539 whole entry): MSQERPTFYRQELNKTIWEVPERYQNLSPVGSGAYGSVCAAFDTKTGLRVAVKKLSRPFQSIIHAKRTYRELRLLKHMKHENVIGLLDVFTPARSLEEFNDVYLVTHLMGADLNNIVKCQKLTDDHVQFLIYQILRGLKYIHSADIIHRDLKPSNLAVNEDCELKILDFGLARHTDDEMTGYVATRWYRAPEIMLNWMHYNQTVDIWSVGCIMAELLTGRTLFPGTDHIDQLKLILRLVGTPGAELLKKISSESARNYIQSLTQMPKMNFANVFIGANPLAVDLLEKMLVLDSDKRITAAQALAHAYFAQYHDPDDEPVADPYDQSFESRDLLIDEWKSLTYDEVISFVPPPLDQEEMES
Sequence of Cytochrome P450 2C19 (P33261 whole entry): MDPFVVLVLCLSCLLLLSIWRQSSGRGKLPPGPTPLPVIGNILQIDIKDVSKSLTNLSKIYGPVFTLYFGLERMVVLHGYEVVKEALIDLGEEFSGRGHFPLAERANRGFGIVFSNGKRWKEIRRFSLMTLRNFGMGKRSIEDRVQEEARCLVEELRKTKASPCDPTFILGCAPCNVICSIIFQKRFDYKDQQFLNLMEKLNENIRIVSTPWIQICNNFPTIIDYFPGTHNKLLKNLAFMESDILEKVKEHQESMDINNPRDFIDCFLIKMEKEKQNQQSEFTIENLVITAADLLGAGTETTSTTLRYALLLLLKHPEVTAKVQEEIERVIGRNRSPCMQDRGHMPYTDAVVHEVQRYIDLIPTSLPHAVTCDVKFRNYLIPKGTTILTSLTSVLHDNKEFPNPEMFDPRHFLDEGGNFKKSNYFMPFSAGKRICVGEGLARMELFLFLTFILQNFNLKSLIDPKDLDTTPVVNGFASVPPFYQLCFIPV
Sequence of Vascular endothelial growth factor receptor 1 (P17948 whole entry): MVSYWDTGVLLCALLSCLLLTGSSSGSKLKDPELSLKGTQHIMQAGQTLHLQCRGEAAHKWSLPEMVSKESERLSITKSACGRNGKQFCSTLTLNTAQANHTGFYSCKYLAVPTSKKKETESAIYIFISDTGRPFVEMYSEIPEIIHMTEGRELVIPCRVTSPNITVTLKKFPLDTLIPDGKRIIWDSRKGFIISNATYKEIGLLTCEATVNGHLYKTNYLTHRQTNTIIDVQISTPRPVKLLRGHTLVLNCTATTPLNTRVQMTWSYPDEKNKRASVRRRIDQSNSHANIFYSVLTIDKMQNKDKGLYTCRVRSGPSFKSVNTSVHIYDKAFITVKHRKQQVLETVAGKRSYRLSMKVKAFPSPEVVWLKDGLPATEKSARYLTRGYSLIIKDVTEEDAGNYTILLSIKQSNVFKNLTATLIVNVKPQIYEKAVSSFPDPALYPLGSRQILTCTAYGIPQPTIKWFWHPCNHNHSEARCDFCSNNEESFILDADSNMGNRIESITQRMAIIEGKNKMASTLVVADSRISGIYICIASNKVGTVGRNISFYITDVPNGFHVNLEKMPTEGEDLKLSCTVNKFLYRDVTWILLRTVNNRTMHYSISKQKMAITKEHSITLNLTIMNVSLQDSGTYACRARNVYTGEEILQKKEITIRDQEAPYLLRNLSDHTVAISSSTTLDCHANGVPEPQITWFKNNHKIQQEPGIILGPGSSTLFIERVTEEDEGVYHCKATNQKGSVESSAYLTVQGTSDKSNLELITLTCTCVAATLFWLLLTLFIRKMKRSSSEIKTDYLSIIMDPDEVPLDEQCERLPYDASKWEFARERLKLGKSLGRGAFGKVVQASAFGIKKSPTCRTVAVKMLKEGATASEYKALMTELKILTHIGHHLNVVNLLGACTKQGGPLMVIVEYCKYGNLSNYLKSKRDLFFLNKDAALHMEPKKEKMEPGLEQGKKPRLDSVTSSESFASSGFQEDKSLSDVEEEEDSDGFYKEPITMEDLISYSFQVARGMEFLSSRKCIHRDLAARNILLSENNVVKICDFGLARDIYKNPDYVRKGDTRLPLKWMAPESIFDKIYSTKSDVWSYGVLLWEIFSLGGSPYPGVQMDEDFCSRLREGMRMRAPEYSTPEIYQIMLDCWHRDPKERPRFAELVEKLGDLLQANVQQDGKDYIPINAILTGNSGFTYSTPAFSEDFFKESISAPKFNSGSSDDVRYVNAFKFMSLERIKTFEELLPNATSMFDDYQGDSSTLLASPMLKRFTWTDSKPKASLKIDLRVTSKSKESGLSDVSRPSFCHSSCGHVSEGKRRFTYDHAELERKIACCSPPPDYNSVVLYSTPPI
Sequence of Cytochrome P450 3A4 (P08684 whole entry): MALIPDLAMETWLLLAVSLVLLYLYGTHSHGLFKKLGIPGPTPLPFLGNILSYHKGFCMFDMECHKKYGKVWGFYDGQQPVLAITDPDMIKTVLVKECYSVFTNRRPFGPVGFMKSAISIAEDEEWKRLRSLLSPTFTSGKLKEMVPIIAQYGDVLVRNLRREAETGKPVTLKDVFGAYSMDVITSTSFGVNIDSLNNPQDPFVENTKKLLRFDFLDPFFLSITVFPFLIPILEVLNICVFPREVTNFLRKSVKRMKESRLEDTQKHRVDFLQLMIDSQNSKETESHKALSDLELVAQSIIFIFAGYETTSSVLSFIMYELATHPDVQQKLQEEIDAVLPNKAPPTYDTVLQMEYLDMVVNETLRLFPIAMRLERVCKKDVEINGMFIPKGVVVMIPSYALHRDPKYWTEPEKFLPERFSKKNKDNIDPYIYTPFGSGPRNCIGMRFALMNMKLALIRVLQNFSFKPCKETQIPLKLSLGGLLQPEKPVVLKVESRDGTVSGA

Compound | IC50 [1] | IC50 [2] | IC50 [3] | IC50 (Cytochrome P450 3A4) | Ki (Cytochrome P450 3A4) | IC50 [4] | IC50 [5] | Ki [5] | IC50 (Cytochrome P450 2C19) | Ki (Cytochrome P450 2C19) | IC50 [6] | Ki [6] | IC50 ([2]; read-out: IC50) | Ki [1] | Ki [2] | Ki [3] | Ki [4]
Nc1nc2c(c(=O)[nH]1)N(C=O)C(CNc1ccc(C(=O)N[C@@H](CCC(=O)O)C(=O)O)cc1)CN2 (stereo partly specified) [LEUCOVORIN] | Not Active | Not Active | Not Active | Not Active | Not Active | Not Active | Not Active | Not Active | Not Active | Not Active | Not Active | Not Active |  |  |  |  | 
C[C@@H](O)[C@H]1C(=O)N2C(C(=O)O)=C(S[C@@H]3CN[C@H](C(=O)N(C)C)C3)[C@H](C)[C@H]12 [MEROPENEM] | Not Active | Not Active | Not Active | Not Active | Not Active | Not Active | Not Active | Not Active | Not Active | Not Active | Not Active | Not Active |  |  |  |  | 
O=P(O)(O)C(O)(Cc1cccnc1)P(=O)(O)O [RISEDRONIC ACID] | Not Active | Not Active | Not Active | Not Active | Not Active | Not Active | Not Active | Not Active | Not Active | Not Active | Not Active | Not Active |  |  |  |  | 
Nc1ccc(S(=O)(=O)Nc2ncccn2)cc1 [SULFADIAZINE] | Not Active | Not Active | Not Active | Not Active | Not Active | Not Active | Not Active | Not Active | Not Active | Not Active | Not Active | Not Active |  |  |  |  | 
COc1ncnc(NS(=O)(=O)c2ccc(N)cc2)c1OC [SULFADOXINE] | Not Active | Not Active | Not Active | Not Active | Not Active | Not Active | Not Active | Not Active | Not Active | Not Active | Not Active | Not Active |  |  |  |  | 
Nc1ccc(S(=O)(=O)Nc2nccs2)cc1 [SULFATHIAZOLE] | Not Active | Not Active | Not Active | Not Active | Not Active | Not Active | Not Active | Not Active | Not Active | Not Active | Not Active | Not Active |  |  |  |  | 
C[C@@H]1C[C@H]2[C@@H]3CCC4=CC(=O)C=C[C@]4(C)C3=CC[C@]2(C)[C@H]1C(=O)CN1CCN(c2cc(N3CCCC3)nc(N3CCCC3)n2)CC1 [TIRILAZAD] | Not Active |  | Not Active | Not Active | Not Active | Not Active | Not Active | Not Active | Not Active | Not Active | Not Active | Not Active | 7.41 µM |  |  |  | 
NC[C@H]1O[C@H](O[C@H]2[C@H](O)[C@@H](O[C@H]3O[C@H](CO)[C@@H](O)[C@H](N)[C@H]3O)[C@H](N)C[C@@H]2N)[C@H](N)C[C@@H]1O [TOBRAMYCIN] | Not Active | Not Active | Not Active | Not Active | Not Active | Not Active | Not Active | Not Active | Not Active | Not Active | Not Active | Not Active |  |  |  |  | 
O=C(O)C(Cl)(Cl)Cl [TRICHLOROACETIC ACID] | Not Active | Not Active | Not Active | Not Active | Not Active | Not Active | Not Active | Not Active | Not Active | Not Active | Not Active | Not Active |  |  |  |  | 
CC(=O)O[C@H]1C[C@@H]2CC[C@@H]3[C@H](CC[C@@]4(C)[C@H]3C[C@H]([N+]3(C)CCCCC3)[C@@H]4OC(C)=O)[C@@]2(C)C[C@@H]1N1CCCCC1.[Br-] [VECURONIUM BROMIDE] | Not Active | Not Active | Not Active | Not Active | Not Active | Not Active | Not Active | Not Active | Not Active | Not Active | Not Active | Not Active |  |  |  |  | 
COc1cc(C(=O)NS(=O)(=O)c2ccccc2C)ccc1Cc1cn(C)c2ccc(NC(=O)OC3CCCC3)cc12 [ZAFIRLUKAST] | Not Active |  | Not Active | Not Active | Not Active | Not Active | Not Active | Not Active | Not Active | Not Active | Not Active | Not Active | 0.353 µM |  |  |  | 
Cc1cn([C@H]2C[C@H](N=[N+]=[N-])[C@@H](CO)O2)c(=O)[nH]c1=O [ZIDOVUDINE] | Not Active | Not Active | Not Active | Not Active | Not Active | Not Active | Not Active | Not Active | Not Active | Not Active | Not Active | Not Active |  |  |  |  | 
STANNOUS FLUORIDE | Not Active | Not Active | Not Active | Not Active | Not Active | Not Active | Not Active | Not Active | Not Active | Not Active | Not Active | Not Active |  | Not Active | Not Active | Not Active | Not Active
THIMEROSAL | Not Active | Not Active | Not Active | Not Active | Not Active | Not Active | Not Active | Not Active | Not Active | Not Active | Not Active | Not Active |  | Not Active | Not Active | Not Active | Not Active

— ChEMBL document CHEMBL1909046, “DrugMatrix in vitro pharmacology data”
